Measurements reported in publication PMC11848559, “Inhibition of CDH11 Activates cGAS‐STING by Stimulating Branched Chain Amino Acid Catabolism and Mitigates Lung Metastasis of Adenoid Cystic Carcinoma” (Advanced Science, 2024).
Like-named read-outs stand apart in the source and are kept apart here.

How the values were obtained:
[1] = molecular target: T1, Recombinant Human His-Tagged Cadherin-11 Protein (CDH11) (Homo sapiens, UniProt P55287); test: surface plasmon resonance (Biacore, CM7 chip, protein immobilised); assay type: binding
T1 construct: commercial recombinant His-tagged protein (Sino Biological); amine-coupled to CM7 chip
T1 sequence (P55287 54-617 limits assumed): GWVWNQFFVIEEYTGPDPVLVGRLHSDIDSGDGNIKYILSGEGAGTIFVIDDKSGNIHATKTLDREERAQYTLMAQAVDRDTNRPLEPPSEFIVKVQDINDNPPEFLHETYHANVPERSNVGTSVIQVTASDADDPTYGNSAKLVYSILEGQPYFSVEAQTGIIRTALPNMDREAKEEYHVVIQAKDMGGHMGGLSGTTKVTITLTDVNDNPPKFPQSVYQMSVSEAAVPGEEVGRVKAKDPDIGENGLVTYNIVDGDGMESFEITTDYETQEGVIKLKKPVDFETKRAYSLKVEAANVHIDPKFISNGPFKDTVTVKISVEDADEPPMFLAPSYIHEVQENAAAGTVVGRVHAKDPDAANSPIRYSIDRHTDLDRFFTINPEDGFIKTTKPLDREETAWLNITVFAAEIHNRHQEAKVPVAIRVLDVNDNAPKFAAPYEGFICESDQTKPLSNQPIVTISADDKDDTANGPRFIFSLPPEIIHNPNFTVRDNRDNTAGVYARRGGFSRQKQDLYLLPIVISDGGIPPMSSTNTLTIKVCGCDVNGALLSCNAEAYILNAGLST

CDH11 (SACC-83 cells) = molecular target: T2, CDH11 (SACC-83 cells) (Homo sapiens, UniProt P55287); test: cellular thermal shift assay (western blot); assay type: cell-based; details: intact cells, 6 h treatment at cell-viability IC50 dose; 53-66 °C, 3 min
T2 construct: endogenous CDH11 in intact SACC-83 cells, untagged, detected by western blot with anti-CDH11 antibody
T2 sequence (P55287 54-796): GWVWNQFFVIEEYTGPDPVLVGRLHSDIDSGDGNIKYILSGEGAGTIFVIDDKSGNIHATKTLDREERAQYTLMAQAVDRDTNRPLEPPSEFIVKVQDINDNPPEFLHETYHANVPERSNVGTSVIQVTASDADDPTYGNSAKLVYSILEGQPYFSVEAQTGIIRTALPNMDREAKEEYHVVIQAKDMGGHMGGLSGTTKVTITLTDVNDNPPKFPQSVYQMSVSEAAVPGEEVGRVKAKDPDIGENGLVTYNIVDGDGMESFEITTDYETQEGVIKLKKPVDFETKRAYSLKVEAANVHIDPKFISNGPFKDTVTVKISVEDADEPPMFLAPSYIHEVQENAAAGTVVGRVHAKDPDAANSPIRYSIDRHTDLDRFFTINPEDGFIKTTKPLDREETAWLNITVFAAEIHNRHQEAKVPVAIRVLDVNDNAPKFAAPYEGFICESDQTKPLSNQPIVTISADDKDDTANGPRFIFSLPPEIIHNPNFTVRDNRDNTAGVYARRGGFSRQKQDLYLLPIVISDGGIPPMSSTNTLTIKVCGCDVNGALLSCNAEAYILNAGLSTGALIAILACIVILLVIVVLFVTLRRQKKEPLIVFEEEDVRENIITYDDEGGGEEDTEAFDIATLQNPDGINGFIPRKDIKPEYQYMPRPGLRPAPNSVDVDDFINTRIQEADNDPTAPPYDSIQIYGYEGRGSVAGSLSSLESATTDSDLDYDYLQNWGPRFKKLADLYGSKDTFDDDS

| Kd [1] | Kd ([1]; 25 °C, analyte 3.125-100 µM) | Molecule | cellular thermal shift assay (western blot) (CDH11 (SACC-83 cells)) |
| --- | --- | --- | --- |
| 4.67 µM | – | Cc1ccc(-c2cc(C(F)(F)F)nn2-c2ccc(S(N)(=O)=O)cc2)cc1 [CXB, Celecoxib] | All three compounds exhibited significant binding capability toward CDH11 |
| 10.9 µM | – | Cc1ccc(C)c(-c2cc(C(F)(F)F)nn2-c2ccc(S(N)(=O)=O)cc2)c1 [DMC, Dimethylcelecoxib] | All three compounds exhibited significant binding capability toward CDH11 |
| – | 27.4 µM | SD-133 | – |
